# Measurements taken from US20260297016A1, “THERAPEUTIC COMPOUNDS” (REGENTS OF THE UNIVERSITY OF MINNESOTA, priority 2023, published 2026).
# Entries after “also recorded” stand apart in the source; their conditions may differ.
# Assays:
# STING = target: T1, STING (Homo sapiens, UniProt Q86WV6, G230A/H232R/R293Q/R71H); assay: IRF-Lucia Reporter STING Inhibition Assay (THP-1 Lucia ISG cells); assay type: cell-based; settings: 1 μM 2,3-cGAMP, 20 hours
# T1 construct: THP-1 Lucia ISG cells (InvivoGen, thpl-isg); host or cells: THP-1 Lucia ISG cells
# T1 sequence (Q86WV6 whole entry R71H/G230A/H232R/R293Q): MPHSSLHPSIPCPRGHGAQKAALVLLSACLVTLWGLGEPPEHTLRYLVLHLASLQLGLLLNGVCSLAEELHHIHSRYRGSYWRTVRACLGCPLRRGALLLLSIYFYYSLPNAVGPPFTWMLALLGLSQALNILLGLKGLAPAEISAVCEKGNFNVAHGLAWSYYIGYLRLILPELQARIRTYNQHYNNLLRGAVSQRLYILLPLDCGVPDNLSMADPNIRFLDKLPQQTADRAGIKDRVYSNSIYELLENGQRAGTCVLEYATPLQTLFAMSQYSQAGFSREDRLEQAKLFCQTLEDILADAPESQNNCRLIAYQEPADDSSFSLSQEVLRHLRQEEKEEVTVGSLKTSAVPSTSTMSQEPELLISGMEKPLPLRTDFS
# Procedure: IRF-Lucia Reporter STING Inhibition Assay. […] Cells were incubated at 37° C. in a 5% CO2 atmosphere with varying concentrations of test compound for 1.5 hours, followed by treatment with 1 μM 2,3-cGAMP (InvivoGen, tlrl-nacga23-02) and incubated for 20 hours. A 20 μL aliquot of cell suspension was added to 50 μL. QUANTI-Luc™ reagent (InvivoGen, rep-qlc4lg2), and the resulting luminescence is measured by a GloMax Explorer (Promega) with a 0.1 second read time.
# 661 W cells [1] = settings: 12.5 μM, 2 hours, H2O2 500 μM, 24 hours, n=6
# 661 W cells [2] = assay: 4-HNE-induced ROS production in 661 W cells; settings: 12.5 μM, 2 hours, 4-HNE 10 μM, 24 hours, n=6
# 661 W cells [3] = assay: Viability of 661 W cells after H2O2 (trypan blue exclusion)
# 661 W cells [4] = assay: Viability of 661 W cells after 4-HNE (trypan blue exclusion)
# HMC3 cells = settings: 12.5 μM, 200 μM TBHP
# PPAR subtypes = settings: cited from earlier work
# [5] = system: patients with type 2 diabetes; settings: orally administered, FIELD and ACCORD; cited from earlier work
# PPARα = settings: cited from earlier work
SMILES,"% STING INHIBITION, % at 12.5 μm (STING) [%]","% STING INHIBITION, % at 25 μm (STING) [%]","% STING INHIBITION, % at 50 μm (STING) [%]",further results
"O=C(O)c1cc(NCc2ccc(-c3ccccc3)cc2)ccc1O [Example 37, 5-(([1,1′-Biphenyl]-4-ylmethyl)amino)-2-hydroxybenzoic acid]",0,28,66,
"O=C(O)c1cc(NCc2ccc(-c3ccc(F)c([N+](=O)[O-])c3)cc2)ccc1O [Example 38, 5-(((4′-Fluoro-3′-nitro-[1,1′-biphenyl]-4-yl)methyl)amino)-2-hydroxybenzoic acid]",0,39,90,
"COc1cc(F)ccc1-c1ccc(CNc2ccc(O)c(C(=O)O)c2)cc1 [Example 39, 5-(((4′-Fluoro-2′-methoxy-[1,1′-biphenyl]-4-yl)methyl)amino)-2-hydroxybenzoic acid]",0,0,0,
"Cc1cc(F)ccc1-c1ccc(CNc2ccc(O)c(C(=O)O)c2)cc1 [Example 41, 5-(((4′-Fluoro-2′-methyl-[1,1′-biphenyl]-4-yl)methyl)amino)-2-hydroxybenzoic acid]",25,47,80,
Oc1ccc(NCc2ccc(-c3ccc(F)cc3)cc2)cc1-c1nnn[nH]1 [Example 48],0,32,77,
O=C(Nc1ccc(O)c(NS(=O)(=O)c2ccc(F)cc2)c1)c1ccc(-c2ccccc2)cc1 [SN-011],,,,"H2O2-induced ROS production (661 W cells [1]): the difference between SN011 and Example 17 is less pronounced; 4-HNE-induced production of ROS (661 W cells [2]): the difference between SN011 and Example 17 is less pronounced; cell viability after H2O2 (661 W cells [3]; 1 μM and 10 μM, H2O2 500 μM, 24 hours, n=3): fails to show a dose-response improvement between 1 μM and 10 μM; also recorded: Improvement in cell viability; cell viability after H2O2 (661 W cells [3]; 1 μM, SN-011 vs Example 31): no significant difference; cell viability after 4-HNE (661 W cells [4]; 1 μM and 10 μM, 4-HNE 10 μM, 24 hr, n=3): fails to show a dose-response improvement between 1 μM and 10 μM; also recorded: Improvement in cell viability; cell viability after 4-HNE (661 W cells [4]; 1 μM, SN-011 vs Example 31): no significant difference; TBHP-induced production of ROS (oxidative stress) (HMC3 cells): greater reduction in oxidative stress than PPARα agonism (Example 31 (BH400)"
CC(C)OC(=O)C(C)(C)Oc1ccc(C(=O)c2ccc(Cl)cc2)cc1 [fenofibrate],,,,selectivity among PPAR subtypes (PPAR subtypes): lack of selectivity among PPAR subtypes; progression of DR and other microvascular endpoints [5]: significantly reduced the progression of DR and other microvascular endpoints; affinity for PPARα (PPARα): low affinity for PPARα
CC(C)(Oc1ccc(C(=O)c2ccc(Cl)cc2)cc1)C(=O)O [fenofibric acid],,,,agonism of PPARα by major metabolite (PPARα; major metabolite of fenofibrate): agonism of PPARα

# Further lines, with some results ahead:
"% STING INHIBITION, % at 12.5 μm (STING) [%]","% STING INHIBITION, % at 25 μm (STING) [%]","% STING INHIBITION, % at 50 μm (STING) [%]",SMILES,further results
0,0,>95,"CC(C)(C)c1ccc(-c2ccc(CNc3ccc(O)c(C(=O)O)c3)cc2)cc1 [Example 36, 5-(((4′-(tert-Butyl)-[1,1′-biphenyl]-4-yl)methyl)amino)-2-hydroxybenzoic acid]",
0,0,0,"COc1ccc(NCc2ccc(-c3ccc(F)cc3)cc2)cc1C#N [Example 43, 5-(((4′-Fluoro-[1,1′-biphenyl]-4-yl)methyl)amino)-2-methoxybenzonitrile]",
0,12,81,"Cc1cc(-c2ccc(CNc3ccc(O)c(C(=O)O)c3)cc2)ccc1F [Example 44, 5-(((4′-Fluoro-3′-methyl-[1,1′-biphenyl]-4-yl)methyl)amino)-2-hydroxybenzoic acid]",
9,50,80,"O=C(O)c1cc(O)cc(NCc2ccc(-c3ccc(F)cc3)cc2)c1 [Example 45, 3-(((4′-Fluoro-[1,1′-biphenyl]-4-yl)methyl)amino)-5-hydroxybenzoic acid]",
9,31,53,"COc1ccc(NCc2ccc(-c3ccc(F)cc3)cc2)cc1C(=O)O [Example 46, 5-(((4′-fluoro-[1,1′-biphenyl]-4-yl)methyl)amino)-2-methoxybenzoic acid]",
40,80,99,"N#Cc1cc(NCc2ccc(-c3ccc(F)cc3)cc2)ccc1O [Example 47, 5-(((4′-Fluoro-[1,1′-biphenyl]-4-yl)methyl)amino)-2-hydroxybenzonitrile]",
